Common to all, as to assay: NCI anticancer screen, dose series, 48 h
Assay [1] has as its system HCT-116 colon.
For assay [2], the system named is U251 CNS.
Assay [3] deals with LOX IMVI melanoma.
The subject of assay [4] is OVCAR-3 ovarian.
The subject of assay [5] is SK-MEL-5 melanoma.
For assay [6], the system named is SK-OV-3 ovarian.
Assay [7] has as its system SK-MEL-2 melanoma.
Assay [8] relates to K-562 leukemia.
In assay [9] the test system is HL-60(TB) leukemia.
Assay [10] has as its system ACHN renal.

Each structure is given as a SMILES string.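 Each compound was tested at five concentrations against cells in 96-well plates for 48 hours. GI50 = concentration required for 50% inhibition of growth. The concentration for full growth arrest is given as TGI.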

Take `COc1ccc2[nH]c3c4c(c5cc(C(C)(C)C)ccc5c3c2c1)C(=O)N(c1ccccc1)C4=O`: the TGI in assay [1], in assay [2], in assay [3], in assay [4], in [5] and in assay [6] was greater than 100 µM each time. Further, the TGI in assay [7], in assay [8] and in assay [9] was greater than 100 µM each time.

With `CC(=O)[O-].CC(=O)[O-].[Mn+2].c1ccc(/C(=N\Nc2ccccn2)c2ccccn2)cc1`, the TGI in assay [1] came to 0.739 µM; in assay [2], 8.15 µM; in [3], 2.06 µM; in assay [4], 0.00913 µM; in assay [10] it was 4.44 µM; in assay [5] it was 5.38 µM. The values for the TGI in [6] and in assay [9] were 17.5 µM and 0.00504 µM, respectively. Besides, the GI50 was 0.0567 µM in assay [5], 0.0509 µM in assay [6], 0.00305 µM in assay [8] and 0.00173 µM in assay [9].

As to `Oc1c(Br)cc(Br)cc1CN(Cc1cc(Br)cc(Br)c1O)C1CCCCC1`, the TGI was greater than 100 µM in assay [1]; 74.9 µM in [2]; greater than 100 µM in assay [3]; 53.8 µM in assay [4]; greater than 100 µM in [10]; 34.6 µM in assay [5]. Further, the TGI in assay [6] is greater than 100 µM; in [7], 45.4 µM; in assay [8] it was greater than 100 µM.

For `COc1cc(C(=O)C/C(CCC(=O)Nc2ccccc2[N+](=O)[O-])=N\NC(=O)C(N)=O)ccc1O`, the TGI in assay [1], in assay [2], in assay [3], in [4], in assay [10] and in [6] was greater than 100 µM throughout. Also, the TGI in assay [7], in assay [8] and in assay [9] was greater than 100 µM each time.

Take `OCCN1CCN(CCO)Cc2ccccc2OCCOc2ccccc2C1`: the TGI in assay [1], in [2], in [3], in assay [4], in assay [10] and in assay [5] was greater than 100 µM throughout. Besides, the TGI in assay [6], in assay [7] and in assay [8] was greater than 100 µM in each case.

For the compound `CCCCCCCCCOC(=S)NC`, the TGI in [2] amounted to 31.5 µM; in assay [3], 35.5 µM; in assay [4] it was 36.1 µM; in assay [10], 37.6 µM; in assay [5], 39.6 µM; in assay [6], 45.7 µM. The TGI turned out to be 41 µM in assay [7], 51.1 µM in assay [8] and 34.1 µM in assay [9].

For `Cc1ccc(-c2csc(N(C(=O)N3CCN(c4cc5c(cc4F)c(=O)c(C(=O)O)cn5C4CC4)CC3)c3ccccc3)n2)cc1`, the GI50 in [1] was 0.333 µM; in assay [2], 0.368 µM; in assay [3] it was 0.305 µM; in assay [4], 0.391 µM; in assay [10] it was 0.278 µM; in [5], 0.541 µM. The values for the GI50 in assay [6], in assay [7] and in [8] were 0.252 µM, 0.344 µM and 0.269 µM, respectively. Also, the TGI was greater than 100 µM in assay [1]; 6.73 µM in assay [2]; greater than 100 µM in assay [3]; greater than 100 µM in assay [4]; greater than 100 µM in assay [10]; greater than 100 µM in [5]. The figures for the TGI in assay [6], in assay [7] and in [8] were 0.787 µM, 1.75 µM and greater than 100 µM, respectively.

For `CC1(C)CC23C(=O)N(c4ccccc4)C(=Nc4ccccc4)NC2=CC(C#N)=C(C#N)C3O1` (stereo not drawn), the TGI is greater than 100 µM in [1]; greater than 100 µM in assay [2]; greater than 100 µM in assay [3]; greater than 100 µM in [4]; greater than 100 µM in assay [10]; 95.5 µM in [5]. Besides, the TGI was greater than 100 µM in assay [7], greater than 100 µM in [8] and 89.9 µM in assay [9].

Regarding `C=C1C(=O)O[C@@H]2[C@H]1CC[C@H](C)[C@]1(O)CCC(=O)[C@@]21C`, the TGI in assay [1], in [2], in [3], in [4], in assay [5] and in assay [6] was greater than 10 µM each time. The TGI in assay [7], in assay [8] and in assay [9] was greater than 10 µM in each case.

For the compound `Cc1nc(NC(=S)NC(=O)c2ccc(Cl)c(Cl)c2)sc1C(=O)/C=C/c1ccccc1[N+](=O)[O-]`, the TGI in assay [1] was 47.9 µM; in assay [2], 32.9 µM; in assay [3], 34.3 µM; in assay [4], 51.7 µM; in [10], 67.4 µM; in assay [6], 49.7 µM. The TGI was determined as 44.4 µM in [7], 42.2 µM in assay [8] and 45.8 µM in assay [9].

For the compound `Cc1cc(N(CCC#N)CCC#N)ccc1/C=C1/CN(N2C(=O)/C(=C/c3ccc(N(CCC#N)CCC#N)cc3C)N=C2c2ccccc2)C(c2ccccc2)=N1`, the TGI in assay [1], in assay [2], in assay [3], in [4], in [10] and in [5] was greater than 100 µM throughout. Further, the TGI in assay [8] and in assay [9] was greater than 100 µM each time.

As for `CC(C)C1C(=O)N2CCCC2C2(O)OC(NC(=O)C3C=C4c5cccc6[nH]cc(c56)CC4N(C)C3)(C(C)C)C(=O)N12` (stereo not drawn), the TGI worked out at 33.5 µM in [1]; 70.3 µM in [2]; 34.8 µM in assay [3]; 80.6 µM in [4]; 43.4 µM in [10]; 57.9 µM in assay [5]. In addition, the TGI turned out to be 42.4 µM in [7] and 48.5 µM in assay [9].

The record behind these values is PubChem BioAssay (NCI).
